Assay results as given in BigSolDB 2.1.

Conditions: 298.15 K

CCC(C)n1ncn(-c2ccc(N3CCN(c4ccc(OC[C@H]5CO[C@](Cn6cncn6)(c6ccc(Cl)cc6Cl)O5)cc4)CC3)cc2)c1=O (mixture of isomers)
Conditions | solubility (mole fraction)
in DMAc | 0.0118
in DMF | 0.0107
in DMSO | 0.00175
in NMP | 0.022
in THF | 0.00212
in acetone | 0.000637
in acetonitrile | 7.95e-05
in chloroform | 0.0504
in dichloromethane | 0.0327
in ethanol | 1.91e-05
in isopropanol | 2.14e-05
in methanol | 3.79e-05
in n-butanol | 2.3e-05
in n-propanol | 2.05e-05
in transcutol | 0.00073
in water | 2.43e-07
